Experimental data: patent US12459951B2, “Compounds that interact with RAS superfamily proteins for treatment of cancers, inflammatory diseases, rasopathies, and fibrotic disease” (SHY Therapeutics, LLC, priority 2022, dated 2025)

Experiments:
MAPK p38 phosphorylation = assay: MAPK p38 Activation Assay (western blot), Panc-1; format: cell-based, human; conditions: at 10 μM, Panc-1 pancreatic cancer cell line; starred symbols = activation
How it was run: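 Panc-1 cells (KRas G12D) were treated with compound for 6 h at 37 °C, at 10 μM or as serial dilutions for IC50, with 0.3% DMSO. Method 1 used overnight serum-starved cells (0.5% FBS) stimulated with 1.5 ng/ml EGF for 15 min; Method 2 used unstimulated cells in 10% FBS. Phospho-p38 (Thr180/Tyr182) was detected by western blot.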

Rheb = target: T1, Rheb (Homo sapiens, UniProt Q15382); assay: Rheb GTP Binding Domain Inhibition Assay; conditions: read-out: Rheb: % inh.
T1 construct: made in house
T1 sequence (Q15382 whole entry, the tested form may be a part): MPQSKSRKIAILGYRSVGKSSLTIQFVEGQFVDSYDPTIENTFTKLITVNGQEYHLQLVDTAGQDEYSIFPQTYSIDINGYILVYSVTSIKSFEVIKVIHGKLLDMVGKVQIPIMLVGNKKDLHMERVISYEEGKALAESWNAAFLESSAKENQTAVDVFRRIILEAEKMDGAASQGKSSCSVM
Experimental: Protocol for Cdc42 and Rheb GTP Binding Domain Inhibition Assay
The following method was developed as specific assay for cdc42 and Rheb proteins.
• 25 mM Tris-HCl, pH 7.4 • 27 mM KCl • 137 mM NaCl • 1 mM MgCl2 • 1 mM DTT Buffer-II: • 50 mM Tris-HCl, pH 7.0 • 1 mM MgCl2 • 1 mM DTT
The small GTPases proteins cdc42 and Rheb were expressed as His-tagged proteins. For the assay, the cdc42 and Rheb purified small GTPases proteins were diluted in Buffer-I or Buffer-II to a final concentration of 10-30 μg/mL. 200 μL of each diluted protein was added to a nickel-coated 96-well plate and incubated overnight at […]. Then the protein solution was discarded and 200 μL of Buffer-I or Buffer-II was added to each well in the presence of 1% DMSO. Compounds to be tested were added to the protein-coated wells at final concentration of 20 μM, and incubated for 3 hours at room temperature with and without 10-30 μg/mL of Sos added to the final hour of the incubation. When performing IC50 measurements a serial dilution of all tested concentrations was added. Then Cy3-GTP or Cy5-GTP was added to each well to a final concentration of 100 nM. The labeled GTP was incubated for 45 minutes at room temperature. Following GTP incubation, wells were washed 3× in Buffer-I or Buffer-II and 200 μL of Buffer-I or Buffer-II was added to each well. Following washes, the amount of bound labeled-GTP was measured using a SpectraMax M3 (Molecular Devices).

[1] = Kinetic Solubility Assay in pH 7.4 Buffer + 2% DMSO; format: physicochemical; conditions: phosphate-buffered saline pH 7.4 with 2% DMSO, aqueous buffer, kinetic from dmso stock, 25° C., two hours
How it was run: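 Compound from 20 mM DMSO stock diluted to nominal 400 μM in PBS pH 7.4 with 2% DMSO, in duplicate, shaken 2 h at 25° C., then filtered. Filtrate quantified by UV absorbance (230-550 nm) against 10-200 μM calibration curves; effective range ~2-400 μM.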

Row | inhibition at 20 µM (Rheb) | solubility at 2 h [1] | SMILES | % inh of MAPK p38 in Panc-1 (MAPK p38 phosphorylation)
1 |  | < 10 µM | CCOc1cc(Nc2nc(-c3nccn3C)nn3cc(-c4ccn(C)n4)c(C)c23)n[nH]1 [Compound 260, N-(5-Ethoxy-1H-pyrazol-3-yl)-5-methyl-2-(1-methyl-1H-imidazol-2-yl)-6-(1-methyl-1H-pyrazol-3-yl)pyrrolo[2,1-f][1,2,4]triazin-4-amine] | 
2 |  | < 10 µM | Cc1c(-c2ccn(C)n2)cn2nc(-c3nccn3C)nc(Nc3cc(-c4cccnc4)ccn3)c12 [Compound 250, N-([3,4′-Bipyridin]-2′-yl)-5-methyl-2-(1-methyl-1H-imidazol-2-yl)-6-(1-methyl-1H-pyrazol-3-yl)pyrrolo[2,1-f][1,2,4]triazin-4-amine] | 
3 | 50 to 75% |  | Cc1c(-c2ccn(C(C)C)n2)cn2nc(-c3nccn3C)nc(Nc3nnc(C4CC4)o3)c12 [Compound 67, 5-Cyclopropyl-N-(6-(1-isopropyl-1H-pyrazol-3-yl)-5-methyl-2-(1-methyl-1H-imidazol-2-yl)pyrrolo[2,1-f][1,2,4]triazin-4-yl)-1,3,4-oxadiazol-2-amine] | H* (H* ≥ 100% activation)
4 |  | < 10 µM | COc1cc(Nc2nc(-c3nccn3C)nn3cc(-c4ccn(C)n4)c(C)c23)n[nH]1 [Compound 252, N-(5-Methoxy-1H-pyrazol-3-yl)-5-methyl-2-(1-methyl-1H-imidazol-2-yl)-6-(1-methyl-1H-pyrazol-3-yl)pyrrolo[2,1-f][1,2,4]triazin-4-amine] | 
5 | 1 to 25% |  | COc1ccc(Nc2nc(-c3nccn3C)nn3cc(-c4ccn(C(C)C)n4)c(C)c23)cn1 [Compound 71, 6-(1-Isopropyl-1H-pyrazol-3-yl)-N-(6-methoxypyridin-3-yl)-5-methyl-2-(1-methyl-1H-imidazol-2-yl)pyrrolo[2,1-f][1,2,4]triazin-4-amine] | H* (H* ≥ 100% activation)
6 | 50 to 75% |  | COc1cccc(-c2cn3nc(-c4nccn4C)nc(N[C@H]4C[C@H](OC)C4)c3c2-c2ccccn2)c1F [Compound 45, 6-(2-Fluoro-3-methoxyphenyl)-N-((1r,3r)-3-methoxycyclobutyl)-2-(1-methyl-1H-imidazol-2-yl)-5-(pyridin-2-yl)pyrrolo[2,1-f][1,2,4]triazin-4-amine] | H* (H* ≥ 100% activation)
7 | 76 to 100% |  | Cc1c(-c2ccn(C(C)C)n2)cn2nc(-c3nccn3C)nc(Nc3ccn(C)n3)c12 [Compound 61, 6-(1-Isopropyl-1H-pyrazol-3-yl)-5-methyl-2-(1-methyl-1H-imidazol-2-yl)-N-(1-methyl-1H-pyrazol-3-yl)pyrrolo[2,1-f][1,2,4]triazin-4-amine] | H* (H* ≥ 100% activation)
8 | 0% |  | Cc1c(-c2ccn(C(C)C)n2)cn2nc(-c3nccn3C)nc(Nc3ccncc3)c12 [Compound 52, 6-(1-Isopropyl-1H-pyrazol-3-yl)-5-methyl-2-(1-methyl-1H-imidazol-2-yl)-N-(pyridin-4-yl)pyrrolo[2,1-f][1,2,4]triazin-4-amine] | F* (F* = 31-74% activation)
9 | 1 to 25% |  | Cc1c(-c2ccn(C(C)C)n2)cn2nc(-c3nccn3C)nc(Nc3cc(C4CC4)no3)c12 [Compound 69, 3-Cyclopropyl-N-(6-(1-isopropyl-1H-pyrazol-3-yl)-5-methyl-2-(1-methyl-1H-imidazol-2-yl)pyrrolo[2,1-f][1,2,4]triazin-4-yl)isoxazol-5-amine] | H* (H* ≥ 100% activation)
10 | 50 to 75% |  | COc1cccc(-c2cn3nc(-c4nccn4C)nc(N[C@@H]4CC[C@@H](OC)C4)c3c2-c2ccccn2)c1F (racemic) [Compound 46, rac 6-(2-Fluoro-3-methoxyphenyl)-N-((1R,3R)-3-methoxycyclopentyl)-2-(1-methyl-1H-imidazol-2-yl)-5-(pyridin-2-yl)pyrrolo[2,1-f][1,2,4]triazin-4-amine] | H (H = 100% inhibition)
11 | 26 to 49% |  | COc1cccc(-c2cn3nc(-c4nccn4C)nc(N[C@H]4C[C@H](OC)C4)c3c2-c2ccccc2)c1Cl [Compound 32, 6-(2-Chloro-3-methoxyphenyl)-N-((1r,3r)-3-methoxycyclobutyl)-2-(1-methyl-1H-imidazol-2-yl)-5-phenylpyrrolo[2,1-f][1,2,4]triazin-4-amine] | H (H = 100% inhibition)

Continued, compound first:

Row | SMILES | inhibition at 20 µM (Rheb) | solubility at 2 h [1] | % inh of MAPK p38 in Panc-1 (MAPK p38 phosphorylation)
12 | Cc1c(-c2ccn(C(C)C)n2)cn2nc(-c3nccn3C)nc(Nc3nc(C4CC4)no3)c12 [Compound 70, 3-Cyclopropyl-N-(6-(1-isopropyl-1H-pyrazol-3-yl)-5-methyl-2-(1-methyl-1H-imidazol-2-yl)pyrrolo[2,1-f][1,2,4]triazin-4-yl)-1,2,4-oxadiazol-5-amine] | 1 to 25% |  | H* (H* ≥ 100% activation)
13 | Cc1c(-c2ccn(C)n2)cn2nc(-c3nccn3C)nc(Nc3cc(-c4ccccn4)ccn3)c12 [Compound 248, N-([2,4′-Bipyridin]-2′-yl)-5-methyl-2-(1-methyl-1H-imidazol-2-yl)-6-(1-methyl-1H-pyrazol-3-yl)pyrrolo[2,1-f][1,2,4]triazin-4-amine] |  | < 10 µM | 
14 | Cc1c(-c2ccn(C(C)C)n2)cn2nc(-c3nccn3C)nc(Nc3ccn(C(C)C)n3)c12 [Compound 72, N,6-bis(1-Isopropyl-1H-pyrazol-3-yl)-5-methyl-2-(1-methyl-1H-imidazol-2-yl)pyrrolo[2,1-f][1,2,4]triazin-4-amine] | 50 to 75% |  | H* (H* ≥ 100% activation)
15 | Cc1c(-c2ccn(C(C)C)n2)cn2nc(-c3nccn3C)nc(Nc3ncco3)c12 [Compound 60, N-(6-(1-Isopropyl-1H-pyrazol-3-yl)-5-methyl-2-(1-methyl-1H-imidazol-2-yl)pyrrolo[2,1-f][1,2,4]triazin-4-yl)oxazol-2-amine] | 26 to 49% |  | H* (H* ≥ 100% activation)
16 | COc1cnc(Nc2nc(-c3nccn3C)nn3cc(-c4ccn(C(C)C)n4)c(C)c23)nc1 [Compound 56, 6-(1-Isopropyl-1H-pyrazol-3-yl)-N-(5-methoxypyrimidin-2-yl)-5-methyl-2-(1-methyl-1H-imidazol-2-yl)pyrrolo[2,1-f][1,2,4]triazin-4-amine] | 50 to 75% |  | H* (H* ≥ 100% activation)
17 | CCn1ccc(-c2cn3nc(-c4nccn4C)nc(Nc4cc(OC)ncn4)c3c2C)n1 [Compound 64, 6-(1-Ethyl-1H-pyrazol-3-yl)-N-(6-methoxypyrimidin-4-yl)-5-methyl-2-(1-methyl-1H-imidazol-2-yl)pyrrolo[2,1-f][1,2,4]triazin-4-amine] | 50 to 75% |  | H* (H* ≥ 100% activation)
18 | COc1cc(Nc2nc(-c3nccn3C)nn3cc(-c4ccn(C(C)C)n4)c(C)c23)n[nH]1 [Compound 51, 6-(1-Isopropyl-1H-pyrazol-3-yl)-N-(5-methoxy-1H-pyrazol-3-yl)-5-methyl-2-(1-methyl-1H-imidazol-2-yl)pyrrolo[2,1-f][1,2,4]triazin-4-amine] | 50 to 75% |  | H* (H* ≥ 100% activation)
19 | COc1cccc(-c2cn3nc(-c4nccn4C)nc(N[C@H]4C[C@H](OC)C4)c3c2-c2ccccc2)c1F [Compound 42, 6-(2-Fluoro-3-methoxyphenyl)-N-((1r,3r)-3-methoxycyclobutyl)-2-(1-methyl-1H-imidazol-2-yl)-5-phenylpyrrolo[2,1-f][1,2,4]triazin-4-amine] | 1 to 25% |  | H* (H* ≥ 100% activation)
20 | COCCO[C@H]1C[C@H](Nc2nc(-c3nccn3C)nn3cc(-c4cccc(OC)c4F)c(-c4ccccc4)c23)C1 [Compound 44, 6-(2-Fluoro-3-methoxyphenyl)-N-((1r,3r)-3-(2-methoxyethoxy)cyclobutyl)-2-(1-methyl-1H-imidazol-2-yl)-5-phenylpyrrolo[2,1-f][1,2,4]triazin-4-amine] | 26 to 49% |  | H* (H* ≥ 100% activation)
21 | COc1cccc(-c2cn3nc(-c4nccn4C)nc(N[C@@H]4CC[C@@H](OC)C4)c3c2-c2ccccc2)c1F (racemic) [Compound 43, rac 6-(2-Fluoro-3-methoxyphenyl)-N-((1R,3R)-3-methoxycyclopentyl)-2-(1-methyl-1H-imidazol-2-yl)-5-phenylpyrrolo[2,1-f][1,2,4]triazin-4-amine] | 26 to 49% |  | H* (H* ≥ 100% activation)
